Measurements as given in ChEMBL document CHEMBL1275576, “In vitro activity of tomopenem (CS-023/RO4908463) against anaerobic bacteria” (Antimicrob Agents Chemother, 2009).

Tests used:
Format in all cases: functional
Bacteroides caccae = experiment: Antimicrobial activity against Bacteroides caccae by agar dilution method in presence of 5% laked sheep blood
Prevotella intermedia = experiment: Antimicrobial activity against Prevotella intermedia by agar dilution method in presence of 5% laked sheep blood
[1] = system: Porphyromonas asaccharolytica; experiment: Antimicrobial activity against Porphyromonas asaccharolyticus by agar dilution method in presence of 5% laked sheep blood
Porphyromonas gingivalis = experiment: Antimicrobial activity against Porphyromonas gingivalis by agar dilution method in presence of 5% laked sheep blood
Porphyromonas uenonis = experiment: Antimicrobial activity against Porphyromonas uenonis by agar dilution method in presence of 5% laked sheep blood
[2] = system: Fusobacterium necrophorum; experiment: Antimicrobial activity against Fusobacterium necrophorum by agar dilution method in presence of 5% laked sheep blood
[3] = system: Desulfovibrio desulfuricans; experiment: Antimicrobial activity against Desulfovibrio desulfuricans by agar dilution method in presence of 5% laked sheep blood

SMILES | MIC50 (Bacteroides caccae) [µg/mL] | MIC90 (Bacteroides caccae) [µg/mL] | MIC50 (Prevotella intermedia) [µg/mL] | MIC90 (Prevotella intermedia) [µg/mL] | MIC50 [1] [µg/mL] | MIC90 [1] [µg/mL] | MIC50 (Porphyromonas gingivalis) [µg/mL] | MIC90 (Porphyromonas gingivalis) [µg/mL] | MIC50 (Porphyromonas uenonis) [µg/mL] | MIC90 (Porphyromonas uenonis) [µg/mL] | MIC50 [2] [µg/mL] | MIC90 [2] [µg/mL] | MIC50 [3] [µg/mL] | MIC90 [3] [µg/mL]
CC(=N)N1CC[C@H](SC2=C(C(=O)O)N3C(=O)[C@H]([C@@H](C)O)[C@H]3C2)C1 | 1 | 4 | 0.06 | 0.25 | 0.06 | 0.06 | 0.06 | 0.06 | 0.06 | 0.06 | 0.125 | 2 | 0.5 | 1
C[C@@H](O)[C@H]1C(=O)N2C(C(=O)O)=C(S[C@@H]3CN[C@H](C(=O)N(C)C)C3)[C@H](C)[C@H]12 [MEROPENEM] | 0.25 | 4 | 0.06 | 0.125 | ≤ 0.015 | 0.03 | ≤ 0.015 | 0.03 | ≤ 0.015 | 0.03 | 0.03 | 0.125 | 0.06 | 0.125
C[C@@H](O)[C@H]1C(=O)N2C(C(=O)O)=C(S[C@H]3C[C@@H](C(=O)N4CC[C@H](NC(=O)CNC(=N)N)C4)N(C)C3)[C@H](C)[C@H]12 [TOMOPENEM] | 0.5 | 4 | 0.06 | 0.125 | 0.03 | 0.06 | 0.03 | 0.06 | 0.03 | 0.06 | ≤ 0.015 | 0.5 | 0.125 | 0.5
Cc1ncc([N+](=O)[O-])n1CCO [METRONIDAZOLE] | 0.5 | 1 | 0.5 | 0.5 | 0.06 | 0.25 | 0.06 | 0.25 | 0.06 | 0.25 | ≤ 0.015 | 0.5 | 0.125 | 0.25
C[C@@H](O)[C@H]1C(=O)N2C(C(=O)O)=C(S[C@@H]3CN[C@H](CNS(N)(=O)=O)C3)[C@H](C)[C@H]12 [DORIPENEM] | 0.5 | 4 | 0.06 | 0.125 | 0.03 | 0.06 | 0.03 | 0.06 | 0.03 | 0.06 | 0.03 | 0.25 | 0.125 | 0.25
